From patent US10100079B2, “Progesterone-cationic lipid hybrid as anticancer agent and the process of synthesis thereof” (Council of Scientific & Industrial Research, priority 2016, dated 2018)
Where two headings read alike, the source gives them in different places.

Columns and labels:
B16F10 (PgR-negative) = assay: Cell cycle assay by flow cytometry (PI), B16F10; format: cell-based, murine; details: B16F10, 10 μM, 24 h
Procedure: (§1) To measure the cellular DNA content, cell cycle assay was carried out. In this assay, first cells were synchronized at early S-phase by double thymidine blocking. When cell confluency was reached around 25-30% in 60 mm dish, cells were treated with 2 mM thymidine, diluted in 10% FBS containing DMEM, for 18 h to block cells at early S-phase. To release the blocking, media was discarded and washed with 1×PBS. Then the cells were incubated with fresh cell culture media containing 10% FBS for 9 h. After releasing, second blocking was done with 2 mM thymidine containing media for 17 h. After second blocking cells were released by discarding the thymidine supplemented media and kept in fresh media. All the respective treatments for cell cycle study were done after 2 h of second release.
(§2) S-phase synchronized cells were either kept untreated or treated with compound 1 (10 μM) and 6c (10 μM) for 24 h. Cells from different treatment groups were harvested, washed with 1×PBS, and fixed with 70% ethanol and kept at −20° C. for overnight. Then the ethanol was removed and washed with 1×PBS. […] After incubation cells were collected by centrifugation, washed with 1×PBS, re-suspended in 500 μL 1×PBS, and data was recorded using flow cytometer (FACS Canto II, Becton-Dickinson, San Jose, Calif., USA) and data were analyzed with FACS Diva software. […]

[1] = system: MDA-MB-231 (PgR-negative); assay: Cell cycle assay by flow cytometry (PI), MDA-MB-231; format: cell-based, human; details: MDA-MB-231, 10 μM, 24 h
Procedure: as §1, §2

[2] = system: chick embryo vascularization; assay: Chick embryo angiogenesis (CEA) assay; format: in vivo, chicken; details: 20 μL, 5 μM, 4 h
Procedure: FIG. 7B: In vivo chick embryo angiogenesis (CEA) assay. Vascular sprouting was imaged following 0 h (left panel) and 4 h (right panel) treatment with DMSO, 1 (20 μL, 5 μM) and 6c (20 μL, 5 μM). Damaged vessel is indicated by black arrow.
To measure the anti-angiogenic property chick embryo angiogenesis study was carried out. For this study, fertile chicken eggs were incubated at 37° C. humidified incubator. After four day of incubation, the […] of the eggs were cautiously removed using forceps. After that, the egg yolks were carefully treated with DMSO (20 μL; 0.1% DMSO in IX PBS), compound 1 (20 μL; 5 μM), and 6c (20 μL; 5 μM) for 4 h. Images were captured at 0 and 4 h of incubation with a stereomicroscope (Leica). Different angiogenic parameters were quantified using Angioquant software.

T47D = assay: MTT cytotoxicity assay, T47D; format: cell-based; details: Homo sapiens, read-out: IC50 T47D
Procedure: All cells were grown into mycoplasma free condition. […] All cells were grown up to 75-85% confluency after which cells were trypsinized, counted and seeded, in 96-well plates for cell viability studies, 6-well plates for apoptosis studies, 60 mm dish for cell cycle studies and in 25 cm^2 or 75 cm^2 tissue culture flasks for Western blot studies. The primary stock of the cationic progesterone molecules were made in cell culture grade DMSO and from that secondary stock was prepared by serial dilution with cell culture grade DMSO. The final working concentrations were prepared by diluting the secondary stock in cell culture media keeping the DMSO concentration in working solution below 0.2% with respect to cell culture medium. […] For this assay, 12-18 h before treatment cells were plated in 96-well plate at 5000 cells/well density. […] After completion of the treatment, 10 μL of MTT solution (5 mg/mL) was added in each well and incubated for 4 h. Then the media was removed carefully, and the reduced MTT was dissolved in 1:1 (v/v) DMSO/Methanol and absorbance was measured using multimode reader (Synergy H1, BioTek). Results were represented as percentage of viability={[A550(treated cells)−background]/[A550(untreated cells)−background]}×100. The result was summarized and provided as IC50 table in Table 1.

[3] = system: cancer cells T47D, OVCAR-3, MDA-MB-231, MCF-7 and B16F10; assay: MTT viability, all tested cancer cells (combination treatment study, FIG. 1A); format: cell-based; details: 48 h; for toxicity in cancer cells: 10 μM (1+10C: 10 μM+10 μM)
Procedure: FIG. 1A: The viability studies of cancer cells T47D, OVCAR-3, MDA-MB-231, MCF-7 and B16F10 after 48 h of continuous treatment with compound 1 (10 μM), 10C [cationic lipid control molecule not containing progesterone moiety]
Cytotoxicity assay of the different compounds were carried out by using 3-(4,5-dimethylthiazol-2-yl)-2,5-diphenyltetrazolium bromide (MTT). For this assay, 12-18 h before treatment cells were plated in 96-well plate at 5000 cells/well density. After incubation cells were treated continuously for 48 h with respective compounds at different concentration (2.5 μM-40 μM). After completion of the treatment, 10 μL of MTT solution (5 mg/mL) was added in each well and incubated for 4 h. Then the media was removed carefully, and the reduced MTT was dissolved in 1:1 (v/v) DMSO/Methanol and absorbance was measured using multimode reader (Synergy H1, BioTek). Results were represented as percentage of viability={[A550(treated cells)−background]/[A550(untreated cells)−background]}×100. The result was summarized and provided as IC50 table in Table 1.
For combination treatment effect, cells were plated in 96 well plates at 5000 cells/well. […] Following 48 h of treatment cell viability was measured following above mentioned MTT study.

B16F10 tumor sections = assay: TUNEL assay with VE-cadherin staining on tumor sections; format: in vivo, mice
Procedure: After completion of the in vivo experiment, one mouse from each group was sacrificed to check the apoptosis in tumor mass. First the tumors were frozen in Jung tissue medium (Leica Microsystem, Germany) followed by cryo-sectioning of 10 μm thin sections using Leica CM1850 cryostat (Germany). These were then fixed into 4% formalin for 15 min. TUNEL assay was carried out using Dead-End fluorometric apoptosis detection kit ([…]) following manufacturer's protocol. The same cryosections were washed with PBS and incubated with VE-cadherin mouse monoclonal antibody at 1:200 dilutions (Santa Cruz Biotech.) for 2 h at 4° C. to stain the blood vessel, followed by one hour incubation with goat anti-mouse IgG-PE (Santa Cruz Biotech.) secondary antibody; after that tissue sections were washed and observed under Nikon TE2000E microscope at 10× magnification.

CC(=O)[C@H]1CC[C@H]2[C@@H]3CCC4=CC(=O)CC[C@]4(C)[C@H]3CC[C@]12C [Compound 1, Progesterone]
total cell population in G2/M phase (B16F10 (PgR-negative)): 19% | total cell population in G2/M phase [1]: 21% | effect on blood vessels / vascularization network [2]: either no effect or little increase in the vascularization network | IC50 (T47D; MTT, 48 h continuous treatment): > 20 µM | toxicity in cancer cells [3]: did not impart any significant toxicity

CCCCCCCCCC[N+](C)(CCCCCCCCCC)CCNC(=O)CCC(=O)O[C@@H](C)[C@H]1CCC2C3CCC4=CC(=O)CC[C@]4(C)C3CC[C@@]21C (stereo partly drawn) [Compound 6c, N-decyl-N-(2-(4-((1S)-1-((10R,13S,17S)-10,13-dimethyl-3-oxo-2,3,6,7,8,9,10,11,12,13,14, 15,16,17-tetradecahydro-1H-cyclopenta[a]phenanthren-17-yl)ethoxy)-4-oxobutanamido)ethyl)-N-methyldecan-1-aminium chloride]
total cell population in G2/M phase (B16F10 (PgR-negative)): 33% | total cell population in G2/M phase [1]: 34% | extent of apoptosis induced in the blood vessel (B16F10 tumor sections; TUNEL / VE-cadherin merge, tumor sections): very high | number of apoptotic cells in tumor compared to untreated or PR (B16F10 tumor sections; TUNEL, tumor sections of treated mice): significantly higher | effect on blood vessels / vascularization network [2]: blood vessels were either significantly damaged or new blood vessel formation was delayed | IC50 (T47D; 48 h): 4.32 ± 0.57 µM | toxicity in cancer cells [3]: significant toxicity only in cancer cells | cell killing in all tested cancer cells ([3]; 2.5 μM-40 μM): significant amount of cell killing
